Measurements: patent US4863904A, “Dipeptides as renin inhibitors” (priority 1984, dated 1989)

target: T1, human renin (Homo sapiens, UniProt P00797); assay: Human renin-sheep renin substrate reaction system in vitro; assay type: biochemical; details: IC50 (molar concentration), purified human renin, semipurified sheep renin substrate, pH 7.4, 37° C., 15 minutes; angiotensin I by radioimmunoassay
T1 sequence (P00797 67-406): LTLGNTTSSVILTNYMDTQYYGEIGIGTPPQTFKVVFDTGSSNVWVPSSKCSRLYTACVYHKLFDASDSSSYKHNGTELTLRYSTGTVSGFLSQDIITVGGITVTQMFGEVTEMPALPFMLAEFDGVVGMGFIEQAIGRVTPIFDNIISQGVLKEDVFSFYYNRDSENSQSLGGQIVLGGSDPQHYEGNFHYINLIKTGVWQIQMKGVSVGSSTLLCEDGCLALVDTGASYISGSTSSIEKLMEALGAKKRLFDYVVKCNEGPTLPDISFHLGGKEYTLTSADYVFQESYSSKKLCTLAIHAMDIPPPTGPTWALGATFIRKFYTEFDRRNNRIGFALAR
Method: The mixture was incubated for 15 minutes on a water bath at 37° C., and the reaction mixture was allowed to stand for 5 minutes on a water bath at 100° C. to stop the reaction. After cooling, 200 μl of the solution was taken up and the amount of angiotensin I produced by the addition of renin was determined by radioimmunoassay. The inhibitory effect was calculated by the following equation. [formula]
As a control, the same procedure as above was carried out by using 50 μl of dimethyl sulfoxide alone in place of the 50 μl of dimethyl sulfoxide solution containing a dipeptide of the present invention.

Row | Compound | IC50 [µM]
1 | CC(C)C[C@@H](CO)NC(=O)[C@H](Cc1c[nH]cn1)NC(=O)C(CCCCc1ccccc1)Cc1cccc2ccccc12 (mixture of isomers) [N-[(±)-2-(1-Naphthylmethyl)-6-phenylhexanoyl]-L-histidyl-L-leucinol] | 5.4
2 | CC(C)C[C@@H](CO)NC(=O)[C@H](Cc1c[nH]cn1)NC(=O)C(CCCC(=O)c1ccccc1)Cc1cccc2ccccc12 (mixture of isomers) | 13
3 | CC(C)C[C@@H](CO)NC(=O)[C@H](Cc1c[nH]cn1)NC(=O)C(CCOCCc1ccccc1)Cc1cccc2ccccc12 (mixture of isomers) [N-[(±)-2-(1-Naphthylmethyl)-4-phenethoxybutyryl]-L-histidyl-L-leucinol] | 15

same assay, conditions: purified human renin, semipurified sheep renin substrate, pH 7.4, 37° C., 15 minutes; angiotensin I by radioimmunoassay; read-out: IC50 (molar concentration)

Row | Compound | IC50 [µM]
4 | CC(C)C[C@@H](CO)NC(=O)[C@H](Cc1c[nH]cn1)NC(=O)C(CC=Cc1ccccc1)Cc1cccc2ccccc12 (mixture of isomers) [N-[(±)-2-(1-Naphthylmethyl)-5-phenyl-4-pentenoyl]-L-histidyl-L-leucinol] | 2.7
5 | CC(C)C[C@@H](CO)NC(=O)[C@H](Cc1c[nH]cn1)NC(=O)C(CC(=O)NCCc1ccccc1)Cc1cccc2ccccc12 (single isomer, unassigned) [N-[2-(1-Naphthylmethyl)-3-(phenethylcarbamoyl)propionyl]-L-histidyl-L-leucinol] | 25
6 | CC(C)C[C@@H](CO)NC(=O)[C@H](Cc1c[nH]cn1)NC(=O)C(CCCc1ccccc1)Cc1cccc2ccccc12 (mixture of isomers) [N-[(±)-2-(1-Naphthylmethyl)-5-phenylvaleryl]-L-histidyl-L-leucinol] | 13
7 | CC(C)C[C@@H](C=O)NC(=O)[C@H](Cc1c[nH]cn1)NC(=O)C(CCOCCc1ccccc1)Cc1cccc2ccccc12 (mixture of isomers) [N-[(±)-2-(1-Naphthylmethyl)-4-phenethoxybutyryl]-L-histidyl-L-leucinal] | 0.075
8 | CC(C)C[C@@H](C=O)NC(=O)[C@H](Cc1c[nH]cn1)NC(=O)C(CC(=O)NCc1ccccc1)Cc1cccc2ccccc12 (single isomer, unassigned) [N-[3-(Benzylcarbamoyl)-2-(1-naphthylmethyl)propionyl]-L-histidyl-L-leucinal(isomer A)] | 0.07
9 | CC(C)C[C@@H](CO)NC(=O)[C@H](Cc1c[nH]cn1)NC(=O)C(CCCCc1ccccc1)Oc1cccc2ccccc12 (mixture of isomers) [N-[(±)-2-(1-Naphthoxy)-6-phenylhexanoyl]-L-histidyl-L-leucinol] | 76
10 | CC(C)C[C@@H](C=O)NC(=O)[C@H](Cc1c[nH]cn1)NC(=O)C(CC(=O)NCc1cccc2ccccc12)Cc1ccccc1 (mixture of isomers) [N-[(±)-2-Benzyl-3-(1-naphthylmethylcarbamoyl)propionyl]-L-histidyl-L-leucinal] | 7.2
11 | CC(C)C[C@@H](C=O)NC(=O)[C@H](Cc1c[nH]cn1)NC(=O)C(CCc1ccccc1)CCc1ccccc1 [N-[4-Phenyl-2-(2-phenylethyl)butanoyl]-L-histidyl-L-leucinal] | 3.5
12 | CC(C)C[C@@H](CO)NC(=O)[C@H](Cc1c[nH]cn1)NC(=O)C(CC(=O)NCCc1c[nH]c2ccccc12)Cc1cccc2ccccc12 (single isomer, unassigned) [N-{3-[2-(3-Indolyl)ethylcarbamoyl]-2-(1-naphthylmethyl)propionyl}-L-histidyl-L-leucinol (isomer B)] | 6.6
13 | CC(C)C[C@@H](CO)NC(=O)[C@H](Cc1c[nH]cn1)NC(=O)C(CC(=O)NCCc1c[nH]c2ccccc12)Cc1cccc2ccccc12 (single isomer, unassigned) [N-{3-[2-(3-Indolyl)ethylcarbamoyl]-2-(1-naphthylmethyl)propionyl}-L-histidyl-L-leucinol (isomer A)] | 28
14 | CC(C)C[C@@H](C=O)NC(=O)[C@H](Cc1c[nH]cn1)NC(=O)C(CNC(=O)Cc1cccc2ccccc12)Cc1ccccc1 (mixture of isomers) [N-[(±)-2-Benzyl-3-(1-naphthylacetamido)propionyl]-L-histidyl-L-leucinal] | 7.6
15 | CC(C)C[C@@H](CO)NC(=O)[C@H](Cc1c[nH]cn1)NC(=O)C(=Cc1cccc2ccccc12)CC(=O)NCCc1ccccc1 [N-[2-(1-Naphthylmethylene)-3-(phenethylcarbamoyl)propionyl]-L-histidyl-L-leucinol] | 69
16 | CC(C)C[C@@H](CO)NC(=O)[C@H](Cc1c[nH]cn1)NC(=O)C(CCCOc1ccccc1)Cc1cccc2ccccc12 (mixture of isomers) [N-[(±)-2-(1-Naphthylmethyl)-5-phenoxyvaleryl]-L-histidyl-L-leucinol] | 26
17 | CC(C)C[C@@H](C=O)NC(=O)[C@H](Cc1c[nH]cn1)NC(=O)C(CC(=O)NCCc1ccccc1)Cc1cccc2ccccc12 (single isomer, unassigned) [N-[2-(1-naphthylmethyl)-3-(phenethylcarbamoyl)propionyl]-L-histidyl-L-leucinal (isomer A)] | 0.041
18 | CC(C)C[C@@H](C=O)NC(=O)[C@H](Cc1c[nH]cn1)NC(=O)C(CCCCCc1ccccc1)Cc1ccccc1 (stereo partly drawn) [N-[2-Benzyl-7-phenylheptanoyl)-L-histidyl-L-leucinal] | 2
19 | CC(C)C[C@@H](C=O)NC(=O)[C@H](Cc1c[nH]cn1)NC(=O)C(CC=CC=Cc1ccccc1)Cc1cccc2ccccc12 (mixture of isomers) [N-[(±)-2-(1-Naphthylmethyl)-7-phenyl-4,6-heptadienoyl]-L-histidyl-L-leucinal] | 0.44
20 | CC(C)C[C@@H](CO)NC(=O)[C@H](Cc1c[nH]cn1)NC(=O)C(CC(=O)NCc1ccccc1)Cc1cccc2ccccc12 (single isomer, unassigned) [N-[3-(Benzylcarbamoyl)-2-(1-naphthylmethyl)propionyl]-L-histidyl-L-leucinol(isomer B)] | 27
21 | CC(C)C[C@@H](CO)NC(=O)[C@H](Cc1c[nH]cn1)NC(=O)C(CNCCCc1ccccc1)Cc1cccc2ccccc12 (single isomer, unassigned) [N-[2-(1-naphthylmethyl)-3-(3-phenylpropylamino)propionyl]-L-histidyl-L-leucinol (isomer A)] | 47
22 | CC(C)C[C@@H](C=O)NC(=O)[C@H](Cc1c[nH]cn1)NC(=O)C(CCCCc1ccccc1)Cc1cccc2ccccc12 (stereo partly drawn) [N-[(-)-2-(1-Naphthylmethyl)-6-phenylhexanoyl]-L-histidyl-L-leucinal] | 0.46
23 | CC(C)C[C@@H](C=O)NC(=O)[C@H](Cc1c[nH]cn1)NC(=O)C(CC=Cc1ccccc1)Cc1cccc2ccccc12 (mixture of isomers) [N-[(±)-2-(1-Naphthylmethyl)-5-phenyl-4-pentenoyl]-L-histidyl-L-leucinal] | 0.22
24 | CC(C)C[C@@H](C=O)NC(=O)[C@H](Cc1c[nH]cn1)NC(=O)C(CCCCc1ccccc1)Cc1cccc2ccccc12 (stereo partly drawn) [N-[(+)-2-(1-Naphthylmethyl)-6-phenylhexanoyl]-L-histidyl-L-leucinal] | 0.088
25 | O=C(CC(Cc1cccc2ccccc12)C(=O)N[C@@H](Cc1c[nH]cn1)C(=O)N[C@H](CO)Cc1ccccc1)NCCc1ccccc1 (single isomer, unassigned) [N-[2-(1-naphthylmethyl)-3-(phenethylcarbamoyl)propionyl]-L-histidyl-L-phenylalaninol (isomer A)] | 91
26 | CC(C)C[C@@H](C=O)NC(=O)[C@H](Cc1c[nH]cn1)NC(=O)C(CC(=O)NCc1ccccc1)Cc1cccc2ccccc12 (single isomer, unassigned) [N-[3-(Benzylcarbamoyl)-2-(1-naphthylmethyl)propionyl]-L-histidyl-L-leucinal(isomer B)] | 4.9
27 | CC(C)C[C@@H](CO)NC(=O)[C@H](Cc1c[nH]cn1)NC(=O)C(CC(=O)NCCc1ccccc1)Cc1cccc2ccccc12 (single isomer, unassigned) [N-[2-(1-naphthylmethyl)-3-(phenethylcarbamoyl)propionyl]-L-histidyl-L-leucinol (isomer A)] | 7.4
28 | CC(C)C[C@@H](CO)NC(=O)[C@H](Cc1c[nH]cn1)NC(=O)C(CC=CC=Cc1ccccc1)Cc1cccc2ccccc12 (mixture of isomers) [N-[(±)-2-(1-Naphthylmethyl)-7-phenyl-4,6-heptadienoyl]-L-histidyl-L-leucinol] | 12
29 | CC(C)C[C@@H](CO)NC(=O)[C@H](Cc1c[nH]cn1)NC(=O)C(CC(=O)NCc1ccccc1)Cc1cccc2ccccc12 (single isomer, unassigned) [N-[3-(Benzylcarbamoyl)-2-(1-naphthylmethyl)propionyl]-L-histidyl-L-leucinol(isomer A)] | 19
30 | CC(C)C[C@@H](C=O)NC(=O)[C@H](Cc1c[nH]cn1)NC(=O)C(CCCCc1ccccc1)Cc1cccc2ccccc12 (stereo partly drawn) [N-[2-(1-Naphthylmethyl)-6-phenylhexanoyl]-L-histidyl-L-leucinal] | 0.14
31 | CC(C)C[C@@H](C=O)NC(=O)[C@H](Cc1c[nH]cn1)NC(=O)C(Cc1ccccc1)Cc1ccccc1 [N-(2-Benzyl-3-phenylpropionyl)-L-histidyl-L-leucinal] | 1.1
32 | CC(C)C[C@@H](C=O)NC(=O)[C@H](Cc1c[nH]cn1)NC(=O)C(CCCC(=O)c1ccccc1)Cc1cccc2ccccc12 (mixture of isomers) [N-[(±)-5-Benzoyl-2-(1-naphthylmethyl)valeryl]-L-histidyl-L-leucinal] | 0.19
